Experimental data as given in patent US20220281970A1, “Pharmaceutical Combinations” (Novartis AG, priority 2018, published 2022).
≈ marks a conversion by molar mass, not a printed value.

What was measured:
[1] = Clinical study CMBG453X2101, MBG453 single agent in solid tumor subjects; assay type: in vivo, human; settings: Q4W, based on PK and PKPD modeling of TIM-3 occupancy
Method: (§1) The MBG453 single agent RD has been determined as 800 mg Q4W in solid tumor subjects primarily based on PK and PKPD modeling of target (TIM-3) occupancy. MBG453 at the dose level of 800 mg Q4W was predicted to give sustained target occupancy of 90% in tumor in >90% of subjects. […] MBG453 single agent is also being evaluated in AML/MDS subjects in the CPDR001X2105 study with Q4W and Q2W regimens.

[2] = Clinical study CPDR001X2105, MBG453 in AML/MDS subjects; assay type: in vivo, human; settings: 400 mg Q2W and 800 mg Q4W
Method: as §1
The RD in AML/MDS has not yet been determined, however it is not expected to be different from solid tumors, based on preliminary PK and safety data.

Colon 26 cells = test: Colon 26 Colorectal Cancer (CRC) syngeneic mouse model; assay type: in vivo
Method: Balb/c mice were implanted with 2×10^5 Colon 26 cells subcutaneously. Mice were treated with HDM201 at 40 mg/kg×3 every 3 h po on Days 10, 17 and 24 post cell implant, and anti-Tim3 antibody (murine cross reactive clone 5D12) at 5 mg/kg ip on days 10, 13, 17, and 20. End-point was defined as tumor volume equal or greater than 1000 mm^3.
The anti-tumor effects of HDM201 as a monotherapy or in combination with an anti-TIM3 antibody were evaluated in the Colon 26 Colorectal Cancer (CRC) syngeneic mouse model.

platelet (PLT) = test: Population PK/PD platelet model parameter estimates (NLME, Monolix) from CHDM201X2101 dataset; assay type: in vivo, human; settings: population estimate
Source text: Based on the population PK/PD data of the clinical study CHDM201X2101, an AML patients platelet model was developed which recognizes that the disease influences the regulation of platelets production. The following graphic elucidates the model.
(§2) For model building the PK/PD dataset of CHDM201X2101 were used and an NLME estimation (Monolix 4.3.2) performed. The model structure and the parameter estimates are provided below. This provided inputs for R/shiny. The mlxR package were used for simulation of longitudinal data from the MLXTRAN model.
EP1=kr1*E^h/(E^h+EC50^h)+kr1D*Cc

hematological tumors = test: Clinical study CHDM201X2101, HDM201 single agent; assay type: in vivo, human
Method: With this regimen, the RD has been determined as 45 mg HDM201 in hematological tumors in the CHDM201X2101 study. […] Proceedings of the American Association for Cancer Research Annual Meeting 2017; 2017 Apr. 1-5; Washington, D.C. Philadelphia (Pa.): AACR; Cancer Res 2017; 77 (13 Suppl): Abstract nr CT154. doi:10.1158/1538-7445.AM2017-CT154).
The starting dose and regimen selection for HDM201 in dose escalation is based on the previous Phase I dose escalation and expansion study of HDM201 as a single-agent in subjects with AML/MDS (CHDM201X2101) in which a dose of 45 mg/day (day 1-7/28-day cycle) was determined to be the RD. In this study, a starting dose and regimen of 20 mg/day HDM201 (day 1-5/28-day cycle) for dose escalation has been selected. The selection of dose and regimen was supported by single agent translational preclinical modeling of tumor bearing rats and population PK/PD modeling of thrombocytopenia and bone marrow blast data from CHDM201X2101 study in AML/MDS subjects. The starting dose corresponds to ˜[…] below the cumulative dose of HDM201 single agent RD (as evaluated in CHDM201X2101 at 45 mg/day (day 1-7/28-day cycle), or 315 mg/cycle). At this dose level, ˜15% of subjects are predicted to achieve preclinical derived average target efficacious concentrations of HDM201 per cycle, with some anticipated clinical activity (bone marrow blast reduction) and limited target myelosuppression.

[3] = Population PK model parameter estimates (NLME, Monolix) from CHDM201X2101 dataset; assay type: in vivo, human; settings: population estimate
Source text: as §2
parameter={r, t1, t2, Tk0, ka, V, Cl, PLTz, MMTP, T12P, sPW, alp, lPW, kr1, kr1D, EC50, ke0, cfr, h, Sg, HGD, koutg, gdfZ, kinG}

[4] = Balb/c mice, Colon 26 sc, HDM201 40 mg/kg x3 every 3 h po days 10, 17, 24, anti-Tim3 antibody 5 mg/kg ip days 10, 13, 17, 20
[5] = learning from clinical study CHDM201X2101

## MBG453: high-affinity, humanized anti-TIM-3 IgG4 monoclonal antibody which blocks the binding of TIM-3 to phosphatidylserin (PtdSer)
[1]
  single agent RD (recommended dose): 800 mg
[2]
  tolerability in AML/MDS: well tolerated

## COc1ncc(-c2nc3c(n2C(C)C)[C@H](c2ccc(Cl)cc2)N(c2cc(Cl)cn(C)c2=O)C3=O)c(OC)n1 [HDM201, (S)-5-(5-Chloro-1-methyl-2-oxo-1,2-dihydro-pyridin-3-yl)-6-(4-chloro-phenyl)-2-(2,4-dimethoxy-pyrimidin-5-yl)-1-isopropyl-5,6-dihydro-1H-pyrrolo[3,4-d]imidazol-4-one]
Colon 26 cells; [4]
  anti-tumor effects (tumor growth): inhibited tumor growth
  complete tumor regressions (CR): 1 CR
Colon 26 cells; mice with CR or long-term survival, Colon 26 cells
  anti-tumor immune memory / resistance to re-challenge: develop antitumor immunity and are resistant to re-challenge with the same tumor cells
Platelet (PLT); Homo sapiens, drug effect EP1 on platelet production, read-out: pop_EC50
  EC50: 0.261 µg/mL (≈ 0.469 µM)
Platelet (PLT); method=FIXED, exponent h in EP1
  pop_h: 2
Platelet (PLT); concentration-proportional term of EP1
  pop_kr1D: 0.006491
Platelet (PLT); effect compartment
  pop_ke0: 6.152e-05
Platelet (PLT); maximal term of drug effect EP1
  pop_kr1: 2.1374
Hematological tumors; day 1-7/28-day cycle, single-agent, subjects with AML/MDS
  RD (recommended dose): 45 mg/day
Hematological tumors; [5]
  hematopoietic recovery on dosing in AML: Delayed hematopoietic recovery
  platelet toxicity on dosing in AML: Cumulative platelet toxicity
Hematological tumors; once daily day 1 to day 7 of a 28-day cycle, hematological tumors
  RD (recommended dose): 45 mg
[3]
  pop_Tk0: 1.314
[3]; method=FIXED
  pop_Cl: 6.18
  pop_V: 119
  pop_ka: 0.489
[3]; method=FIXED, absorption lag (Tlag=t1)
  pop_t1: 0.69
[3]; method=FIXED, absorption lag (Tlag=t2)
  pop_t2: 0.412
[3]; method=FIXED, fraction for zero-order absorption
  pop_r: 0.617
